Experimental data reported in PMC12431657, “Discovery and mechanistic insights of dibenzoylmethane as a broad spectrum inhibitor of coronavirus” (PLOS Pathogens, 2025).
Values joined by “and” are separate entries in the source; they are usually repeats but may differ in a detail not shown here. Equal entries are not always repeated. Where two headings read alike, the source gives them in different places.

Columns and labels:
[1] = system: HCoV-OC43; test: In vivo efficacy of DBM against HCoV-OC43 in suckling mice (body weight, viral RNA copies, immunofluorescence, H&E); parameters: species or system BALB/c suckling mice
Protocol: Next, we characterized the therapeutic efficacy of the DBM in vivo. In this experiment, randomized 5–6-day-old suckling BALB/c mice were orally treated with DBM at concentrations of 500, 200, and 100 mpk 2 hours after being intranasally challenged with HCoV-OC43. Menstruum and VV116 were used as negative and positive controls, respectively. All the mice were sacrificed on Day 5 for organ and sample collection (Fig 4A). The body weight changes of the mice were continuously monitored during the trial. Infection with HCoV-OC43 led to body weight loss in the vehicle-treated mice on Day 5 (Fig 4B). […] The number of viral RNA copies from the brain, spinal cord, lungs, and kidneys were analysed via qRT-PCR, which targeted the HCoV-OC43 nucleocapsid gene sequence. On Day 5, the number of viral RNA copies in the vehicle-treated group reached approximately 10^12 copies in the brain, 10^9 copies in the spinal cord, 10^8 copies in the lungs, and 10^6 copies in the kidney (Fig 4C). In the mice treated with DBM at 500 mpk, the number of viral RNA copies within these organs and tissues was reduced by 1–3 logs compared with the vehicle-treated group. […] Sections of mouse brains, spinal cords, lungs, and kidneys were subjected to immunofluorescence staining with antibodies targeting HCoV-OC43 nucleocapsid proteins.
Fig 4 In vivo antiviral efficacy of DBM in 5-day-old BALB/c suckling mice infected with HCoV-OC43. A) Schematic of the experimental design for evaluating DBM in suckling mice. Each group consisted of 5-6 suckling mice. The schematic was created by the authors using Adobe Illustrator 2022. B) Body weight changes of mice during the experiment. Body weights were recorded daily and all mice were euthanised on the fifth day after infection. C) Viral RNA copies in the brains, spinal cords, lungs, and kidneys of mice collected on Day 5. After grinding and centrifuging the samples with DMEM, viral copies from the supernatants were tested by qRT-PCR. D) Viral titres in homogenised organs and tissues collected from mice on Day 5. E) Immunofluorescence staining of brain and lung sections from mice treated with different regimens. HCoV-OC43 nucleocapsid proteins were detected by immunofluorescence (green). Cell nuclei were stained with DAPI (blue). Data were statistically analyzed with Student’s T test. *: p ≤ 0.05, **: p ≤ 0.01, ***: p ≤ 0.001, ****: p ≤ 0.0001; ns, not significant. The experiments were repeated three times independently with similar results. […] No numeric values are printed in any panel, and nothing was read off the bars, points or curves.
BALB/c mice were maintained and bred in a specific-pathogen-free (SPF) environment at the Laboratory Animal Center of Wuhan Institute of Virology, CAS. Pregnant mice with the same expected delivery date were acclimated in individually ventilated cages under standard conditions within an SPF environment. Food and water were available ad libitum. The mice were anaesthetized by isoflurane inhalation before any operation that may have caused potential discomfort. Before the experiment, suckling mice were randomly allocated into 6 distinct groups, namely, the healthy group, the vehicle group, the groups receiving DBM at 500 mg/kg (mpk) orally quaque die (QD), 200 mpk QD, and 100 mpk QD, and the group receiving VV116 at 25 mpk orally QD. Each group was comprised of 5–6 suckling mice. On the initiation day (Day 0) of the experiment, 5–6-day-old BALB/c suckling mice were intranasally infected with 1 × 10^4 TCID50 of HCoV-OC43. Two hours postinoculation, the mice were orally treated with either a placebo or varying doses of the drugs on the basis of their respective groupings as outlined earlier. This oral treatment regimen was continued for several days. The body weight changes of the mice were monitored daily. On Day 5, all the mice in each group were sacrificed for virological and histopathological analyses. […]

[2] = system: HCoV-OC43; test: microbe, parasite or virus in culture; type: cell-based
[3] = in vivo; settings: Sprague-Dawley, rat, po, 200 mg/kg
[4] = DBM 200 mpk oral QD, Day 5, one value per mouse
[5] = DBM 500 mpk oral QD, Day 5, one value per mouse

O=C(CC(=O)c1ccccc1)c1ccccc1 [DBM, dibenzoylmethane]
Viral RNA copies (log scale), Lung [1, 4]: 5.84 and 6.05 and 5.32 and 4.74 and 6.24
Viral RNA copies (log scale), Spinal Cord [1, 4]: 7.21 and 4.77 and 4.18 and 5.72 and 5.07
weight loss during the experiment ([1]; DBM 500, 200, 100 mpk, VV116 25 mpk): did not experience weight loss
Viral RNA copies (log scale), Brain [1, 5]: 7.30 and 7.20 and 10.02 and 9.11
Viral RNA copies (log scale), Kidney [1, 5]: 5.15 and 4.76 and 4.30 and 4.17
Viral RNA copies (log scale), Lung [1, 5]: 6.62 and 5.77 and 7.8 and 5.49
Viral RNA copies (log scale), Spinal Cord [1, 5]: 7.86 and 7.12 and 7.13 and 6.92
reduction of viral RNA copies in organs and tissues compared with the vehicle-treated group ([1]; DBM 500 mpk, Day 5, brain, spinal cord, lungs, kidneys): 1–3 logs
Body weight (Fig4B) ([1]; Diben-100mpk, day 0, individual mice, 100 mg/kg): 106.0 and 99.6 and 102.4 and 92.2 and 88.6 and 111.2
Body weight (Fig4B) ([1]; Diben-100mpk, day 1, individual mice, 100 mg/kg): 104.0 and 113.7 and 124.8 and 125.0 and 120.9 and 107.3
Body weight (Fig4B) ([1]; Diben-100mpk, day 2, individual mice, 100 mg/kg): 129.4 and 142.0 and 134.3 and 116.8 and 125.0 and 145.3
Body weight (Fig4B) ([1]; Diben-100mpk, day 3, individual mice, 100 mg/kg): 151.0 and 158.2 and 143.3 and 162.5 and 135.0 and 139.2
Body weight (Fig4B) ([1]; Diben-100mpk, day 4, individual mice, 100 mg/kg): 155.1 and 164.8 and 182.5 and 163.5 and 153.3 and 179.2
Body weight (Fig4B) ([1]; Diben-100mpk, day 5, individual mice, 100 mg/kg): 154.0 and 147.9 and 188.2 and 194.1
Body weight (Fig4B) ([1]; Diben-200mpk, day 0, individual mice, 200 mg/kg): 111.2 and 88.7 and 105.9 and 107.7 and 103.2 and 83.4
Body weight (Fig4B) ([1]; Diben-200mpk, day 1, individual mice, 200 mg/kg): 125.7 and 104.5 and 114.6 and 120.1 and 114.8 and 89.2
Body weight (Fig4B) ([1]; Diben-200mpk, day 2, individual mice, 200 mg/kg): 114.8 and 130.4 and 137.3 and 125.5 and 125.0 and 98.5
Body weight (Fig4B) ([1]; Diben-200mpk, day 3, individual mice, 200 mg/kg): 132.4 and 107.4 and 150.4 and 128.4 and 109.9 and 143.8
Body weight (Fig4B) ([1]; Diben-200mpk, day 4, individual mice, 200 mg/kg): 124.4 and 149.1 and 155.3 and 166.7 and 150.7 and DIED
Body weight (Fig4B) ([1]; Diben-200mpk, day 5, individual mice, 200 mg/kg): 132.2 and 156.0 and 162.7 and 162.5 and 153.8
Body weight (Fig4B) ([1]; Diben-500mpk, day 0, individual mice, 500 mg/kg): 97.8 (2×) and 95.2 (2×) and 111.0 and 103.1
Body weight (Fig4B) ([1]; Diben-500mpk, day 1, individual mice, 500 mg/kg): 118.9 and 116.3 and 111.0 and 105.7 (2×) and 124.2
Body weight (Fig4B) ([1]; Diben-500mpk, day 2, individual mice, 500 mg/kg): 145.4 and 111.0 and 129.5 (2×) and 97.8 and 116.3
Body weight (Fig4B) ([1]; Diben-500mpk, day 3, individual mice, 500 mg/kg): 118.9 and 169.2 and 132.2 and 108.4 and 102.6 and 148.0
Body weight (Fig4B) ([1]; Diben-500mpk, day 4, individual mice, 500 mg/kg): 150.7 and DIED (2×) and 187.7 and 103.1 and 161.2
Body weight (Fig4B) ([1]; Diben-500mpk, day 5, individual mice, 500 mg/kg): 100.4
viral loads by immunofluorescence staining of organ sections ([1]; HCoV-OC43 nucleocapsid protein): reduced the viral loads
damage caused by viral infection in brain and lung sections (H&E) ([1]; oral DBM): significantly reduced the damage
resistance of the virus after consecutive passages ([2]; 17 consecutive passages in the presence of DBM): did not develop significant resistance
EC50 ([2]; Betacoronavirus 1, OC43, read-out: EC50 of DBM against HCoV-OC43 passaged with DBM): 850 nM
EC50 ([2]; Betacoronavirus 1, OC43, read-out: EC50 of DBM against HCoV-OC43 passaged with DMSO): 570 nM
viral inhibition ([2]; DBM (virus passaged with DBM), concentration 1.7): 93.4 and 85.2
viral inhibition ([2]; DBM (virus passaged with DBM), concentration 5.0): 99.5
viral inhibition ([2]; column head DMSO (virus passaged with DMSO), concentration 5.0): 100.0
AUC(0-t) [3]: 34300 ng·h/mL
Cmax [3]: 4760 ng/mL
half-life [3]: 175 min
